{"source": "patent US12239134B2", "about": "“Plant antimicrobial compositions including an emulsifier and/or ozone and methods of use” (Arizona Board of Regents on Behalf of The University of …, priority 2018, dated 2025)", "system": "Salmonella Newport", "assay": "Biofilm formation on food contact surface coupons, direct plating", "format": "cell-based, Salmonella enterica", "details": "two-minute treatment", "description": "A protocol based on direct plating was also evaluated for testing the biofilm formation by Salmonella or L. monocytogenes. Biofilms were formed on three different food contact surface coupons (HDPE, Buna-N rubber, and 316 stainless steel) for up to 3 days in 35 mm mini-petri dishes. Biofilms were formed using a 1:10 diluted TSB solution (10 mL) with either S. enterica or L. monocytogenes inoculum (100 μL). The diluted TSB was changed every 16-18 hours with new 1:10 diluted TSB (10 mL). Coupons were removed for sampling and enumeration of strongly attached bacteria at three different time points (Day 0, 1, and 3). The coupons were rinsed with deionized water five times to remove planktonic cells. Then the coupons were immersed in 10 mL of BPW. The coupons were sonicated for 2 minutes using different settings (Tables 11 and 12) for each organism. After sonication, the solution was serially diluted and plated on Tryptic Soy Agar (TSA). Plates were incubated at 37° C. for 24-48 hours. The colonies were counted and the colony forming units were determined for the various sonication settings, so that the appropriate setting with the most recovery could be determined. […] These settings were used in further experiments to recover the bacterial cells from coupons during sampling and enumeration (by spread plating) of the bacteria in biofilms.\nThe reduction in bacterial biofilm formation was also tested using a direct plating method. Biofilms were formed on six different food contact surface coupons (HDPE, Buna-N rubber, PC, PVC, and stainless steel 304 and 316) in separate 35 mm mini-petri dishes and evaluated at three different time points (Day 0, 1, and 3). Biofilms were formed using a 1:10 diluted TSB solution (10 mL) with either S. enterica or L. monocytogenes inoculum (100 μL). The coupons were also washed and treated with antimicrobial solutions containing the plant-based emulsifier and the essential oil/plant extracts at various concentrations. The diluted TSB was changed every 16-18 hours with new 1:10 diluted TSB (10 mL). The coupons were rinsed in the antimicrobial solution before adding them to the petri dishes containing the fresh, diluted TSB. After their specific time points, coupons were removed aseptically using sterile forceps from the petri dish. The coupons were rinsed by submerging in 25 mL of sterile deionized H2O and swirled five times to remove planktonic cells. After rinsing, they were placed into a new petri dish immersed in 10 mL of BPW. The coupons were sonicated for 2 minutes on ice using different settings for each organism. After sonication, the sonicated solution was serially diluted using 0.1% peptone water and spread plated on TSA in duplicate. Plates were incubated overnight at 37° C. for 24-48 hours, after which, the colonies were counted, to establish the efficacy of the antimicrobial solutions (Tables 17-25).", "data": [{"smiles": "O=CC=Cc1ccccc1", "note": "[Cinnamaldehyde, cinnamaldehyde]", "values": [{"measurement": "Survivors of Salmonella Newport on food contact surface", "setting": "0.5% with 0.0001% saponin microemulsion, Day 0, 304 SS", "value": 4.31, "unit": "Log CFU/mL"}, {"measurement": "Survivors of Salmonella Newport on food contact surface", "setting": "0.5% with 0.0001% saponin microemulsion, Day 0, 316 SS", "value": 4.30, "unit": "Log CFU/mL"}, {"measurement": "Survivors of Salmonella Newport on food contact surface", "setting": "0.5% with 0.0001% saponin microemulsion, Day 0, Buna N", "value": 4.23, "unit": "Log CFU/mL"}, {"measurement": "Survivors of Salmonella Newport on food contact surface", "setting": "0.5% with 0.0001% saponin microemulsion, Day 0, HDPE", "value": 4.27, "unit": "Log CFU/mL"}, {"measurement": "Survivors of Salmonella Newport on food contact surface", "setting": "0.5% with 0.0001% saponin microemulsion, Day 0, PC", "value": 4.06, "unit": "Log CFU/mL"}, {"measurement": "Survivors of Salmonella Newport on food contact surface", "setting": "0.5% with 0.0001% saponin microemulsion, Day 0, PVC", "value": 3.93, "unit": "Log CFU/mL"}, {"measurement": "Survivors of Salmonella Newport on food contact surface", "setting": "0.5% with 0.0001% saponin microemulsion, Day 1, 304 SS", "value": 4.45, "unit": "Log CFU/mL"}, {"measurement": "Survivors of Salmonella Newport on food contact surface", "setting": "0.5% with 0.0001% saponin microemulsion, Day 1, 316 SS", "value": 4.48, "unit": "Log CFU/mL"}, {"measurement": "Survivors of Salmonella Newport on food contact surface", "setting": "0.5% with 0.0001% saponin microemulsion, Day 1, Buna N", "value": 4.87, "unit": "Log CFU/mL"}, {"measurement": "Survivors of Salmonella Newport on food contact surface", "setting": "0.5% with 0.0001% saponin microemulsion, Day 1, HDPE", "value": 4.24, "unit": "Log CFU/mL"}, {"measurement": "Survivors of Salmonella Newport on food contact surface", "setting": "0.5% with 0.0001% saponin microemulsion, Day 1, PC", "value": 4.20, "unit": "Log CFU/mL"}, {"measurement": "Survivors of Salmonella Newport on food contact surface", "setting": "0.5% with 0.0001% saponin microemulsion, Day 1, PVC", "value": 4.36, "unit": "Log CFU/mL"}, {"measurement": "Survivors of Salmonella Newport on food contact surface", "setting": "0.5% with 0.0001% saponin microemulsion, Day 3, 304 SS", "value": 4.39, "unit": "Log CFU/mL"}, {"measurement": "Survivors of Salmonella Newport on food contact surface", "setting": "0.5% with 0.0001% saponin microemulsion, Day 3, 316 SS", "value": 4.26, "unit": "Log CFU/mL"}, {"measurement": "Survivors of Salmonella Newport on food contact surface", "setting": "0.5% with 0.0001% saponin microemulsion, Day 3, Buna N", "value": 4.34, "unit": "Log CFU/mL"}, {"measurement": "Survivors of Salmonella Newport on food contact surface", "setting": "0.5% with 0.0001% saponin microemulsion, Day 3, HDPE", "value": 3.24, "unit": "Log CFU/mL"}, {"measurement": "Survivors of Salmonella Newport on food contact surface", "setting": "0.5% with 0.0001% saponin microemulsion, Day 3, PC", "value": 3.75, "unit": "Log CFU/mL"}, {"measurement": "Survivors of Salmonella Newport on food contact surface", "setting": "0.5% with 0.0001% saponin microemulsion, Day 3, PVC", "value": 4.21, "unit": "Log CFU/mL"}, {"measurement": "Survivors of Salmonella Newport on food contact surface", "setting": "0.7% with 0.0001% saponin microemulsion, Day 0, 304 SS", "value": 4.0, "unit": "Log CFU/mL"}, {"measurement": "Survivors of Salmonella Newport on food contact surface", "setting": "0.7% with 0.0001% saponin microemulsion, Day 0, 316 SS", "value": 4.68, "unit": "Log CFU/mL"}, {"measurement": "Survivors of Salmonella Newport on food contact surface", "setting": "0.7% with 0.0001% saponin microemulsion, Day 0, Buna N", "value": 4.08, "unit": "Log CFU/mL"}, {"measurement": "Survivors of Salmonella Newport on food contact surface", "setting": "0.7% with 0.0001% saponin microemulsion, Day 0, HDPE", "value": 4.42, "unit": "Log CFU/mL"}, {"measurement": "Survivors of Salmonella Newport on food contact surface", "setting": "0.7% with 0.0001% saponin microemulsion, Day 0, PC", "value": 4.11, "unit": "Log CFU/mL"}, {"measurement": "Survivors of Salmonella Newport on food contact surface", "setting": "0.7% with 0.0001% saponin microemulsion, Day 0, PVC", "value": "<1", "unit": "Log CFU/mL"}, {"measurement": "Survivors of Salmonella Newport on food contact surface", "setting": "0.7% with 0.0001% saponin microemulsion, Day 1, 304 SS", "value": 3.68, "unit": "Log CFU/mL"}, {"measurement": "Survivors of Salmonella Newport on food contact surface", "setting": "0.7% with 0.0001% saponin microemulsion, Day 1, 316 SS", "value": 3.0, "unit": "Log CFU/mL"}, {"measurement": "Survivors of Salmonella Newport on food contact surface", "setting": "0.7% with 0.0001% saponin microemulsion, Day 1, Buna N", "value": 3.24, "unit": "Log CFU/mL"}, {"measurement": "Survivors of Salmonella Newport on food contact surface", "setting": "0.7% with 0.0001% saponin microemulsion, Day 1, HDPE", "value": "<1", "unit": "Log CFU/mL"}, {"measurement": "Survivors of Salmonella Newport on food contact surface", "setting": "0.7% with 0.0001% saponin microemulsion, Day 1, PC", "value": 3.29, "unit": "Log CFU/mL"}, {"measurement": "Survivors of Salmonella Newport on food contact surface", "setting": "0.7% with 0.0001% saponin microemulsion, Day 1, PVC", "value": "<1", "unit": "Log CFU/mL"}, {"measurement": "Survivors of Salmonella Newport on food contact surface", "setting": "0.7% with 0.0001% saponin microemulsion, Day 3, 304 SS", "value": "<1", "unit": "Log CFU/mL"}, {"measurement": "Survivors of Salmonella Newport on food contact surface", "setting": "0.7% with 0.0001% saponin microemulsion, Day 3, 316 SS", "value": "<1", "unit": "Log CFU/mL"}, {"measurement": "Survivors of Salmonella Newport on food contact surface", "setting": "0.7% with 0.0001% saponin microemulsion, Day 3, Buna N", "value": "<1", "unit": "Log CFU/mL"}, {"measurement": "Survivors of Salmonella Newport on food contact surface", "setting": "0.7% with 0.0001% saponin microemulsion, Day 3, HDPE", "value": "<1", "unit": "Log CFU/mL"}, {"measurement": "Survivors of Salmonella Newport on food contact surface", "setting": "0.7% with 0.0001% saponin microemulsion, Day 3, PC", "value": "<1", "unit": "Log CFU/mL"}, {"measurement": "Survivors of Salmonella Newport on food contact surface", "setting": "0.7% with 0.0001% saponin microemulsion, Day 3, PVC", "value": "<1", "unit": "Log CFU/mL"}, {"measurement": "Survivors of Salmonella Newport on food contact surface", "setting": "1% with 0.0001% saponin microemulsion, Day 0, 304 SS", "value": "<1", "unit": "Log CFU/mL"}, {"measurement": "Survivors of Salmonella Newport on food contact surface", "setting": "1% with 0.0001% saponin microemulsion, Day 0, 316 SS", "value": "<1", "unit": "Log CFU/mL"}, {"measurement": "Survivors of Salmonella Newport on food contact surface", "setting": "1% with 0.0001% saponin microemulsion, Day 0, Buna N", "value": "<1", "unit": "Log CFU/mL"}, {"measurement": "Survivors of Salmonella Newport on food contact surface", "setting": "1% with 0.0001% saponin microemulsion, Day 0, HDPE", "value": "<1", "unit": "Log CFU/mL"}, {"measurement": "Survivors of Salmonella Newport on food contact surface", "setting": "1% with 0.0001% saponin microemulsion, Day 0, PC", "value": "<1", "unit": "Log CFU/mL"}, {"measurement": "Survivors of Salmonella Newport on food contact surface", "setting": "1% with 0.0001% saponin microemulsion, Day 0, PVC", "value": "<1", "unit": "Log CFU/mL"}, {"measurement": "Survivors of Salmonella Newport on food contact surface", "setting": "1% with 0.0001% saponin microemulsion, Day 1, 304 SS", "value": "<1", "unit": "Log CFU/mL"}, {"measurement": "Survivors of Salmonella Newport on food contact surface", "setting": "1% with 0.0001% saponin microemulsion, Day 1, 316 SS", "value": "<1", "unit": "Log CFU/mL"}, {"measurement": "Survivors of Salmonella Newport on food contact surface", "setting": "1% with 0.0001% saponin microemulsion, Day 1, Buna N", "value": "<1", "unit": "Log CFU/mL"}, {"measurement": "Survivors of Salmonella Newport on food contact surface", "setting": "1% with 0.0001% saponin microemulsion, Day 1, HDPE", "value": "<1", "unit": "Log CFU/mL"}, {"measurement": "Survivors of Salmonella Newport on food contact surface", "setting": "1% with 0.0001% saponin microemulsion, Day 1, PC", "value": "<1", "unit": "Log CFU/mL"}, {"measurement": "Survivors of Salmonella Newport on food contact surface", "setting": "1% with 0.0001% saponin microemulsion, Day 1, PVC", "value": "<1", "unit": "Log CFU/mL"}, {"measurement": "Survivors of Salmonella Newport on food contact surface", "setting": "1% with 0.0001% saponin microemulsion, Day 3, 304 SS", "value": "<1", "unit": "Log CFU/mL"}, {"measurement": "Survivors of Salmonella Newport on food contact surface", "setting": "1% with 0.0001% saponin microemulsion, Day 3, 316 SS", "value": "<1", "unit": "Log CFU/mL"}, {"measurement": "Survivors of Salmonella Newport on food contact surface", "setting": "1% with 0.0001% saponin microemulsion, Day 3, Buna N", "value": "<1", "unit": "Log CFU/mL"}, {"measurement": "Survivors of Salmonella Newport on food contact surface", "setting": "1% with 0.0001% saponin microemulsion, Day 3, HDPE", "value": "<1", "unit": "Log CFU/mL"}, {"measurement": "Survivors of Salmonella Newport on food contact surface", "setting": "1% with 0.0001% saponin microemulsion, Day 3, PC", "value": "<1", "unit": "Log CFU/mL"}, {"measurement": "Survivors of Salmonella Newport on food contact surface", "setting": "1% with 0.0001% saponin microemulsion, Day 3, PVC", "value": "<1", "unit": "Log CFU/mL"}]}]}
